Measured values as given in ChEMBL document CHEMBL1201862, “PubChem BioAssay data set” (2004).
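How tested: cells in 96-well plates exposed to compound for 48 hours at five concentrations. GI50 marks 50% less growth.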 Active and inactive are the calls of the source. Cut-off read from the data, not from the text of the source: active = GI50 up to about 1.1 µM and inactive = higher. Starred links: 1 amine or outer side, 2 acyl side, 3 side chain; linkers in the order of their positions; H or OH if unused. Positions of bridges follow the written chain, without caps; N, C: chain ends. Non-standard residues stand in square brackets, D forms with d. Residues, ends and D or L forms follow the SMILES beside them. *: point of attachment. X40 = CC[C@H](C)[C@@H](N[*:1])[C@@H](O)CC(=O)[*:2]; NMeY = CN[C@@H](Cc1ccc(O)cc1)C(=O)O; dNMeL = CN[C@H](CC(C)C)C(=O)O; Hiv = CC(C)[C@H](O)C(=O)O; Pyruvoyl = CC(=O)C(=O)*

Assays:
Experiment in all cases: DTP human tumour cell line panel, 48 h
SK-MEL-5 = tested on: SK-MEL-5
SK-MEL-28 = tested on: SK-MEL-28
UACC-62 = tested on: UACC-62
SK-OV-3 = tested on: SK-OV-3
OVCAR-4 = tested on: OVCAR-4
SF-539 = tested on: SF-539
IGROV-1 = tested on: IGROV-1
NCI-H460 = tested on: NCI-H460
EKVX = tested on: EKVX
SNB-19 = tested on: SNB-19
COLO 205 = tested on: COLO 205
MDA-MB-231 = tested on: MDA-MB-231
K562 = tested on: K562
UO-31 = tested on: UO-31
OVCAR-8 = tested on: OVCAR-8
MCF7 = tested on: MCF7
HL-60 = tested on: HL-60
OVCAR-3 = tested on: OVCAR-3
HCT-15 = tested on: HCT-15
HCT-116 = tested on: HCT-116

CCCc1nnc2sc(COc3ccc(OCc4nn5c(CCC)nnc5s4)c(Cl)c3)nn12
GI50 (SK-MEL-5): 7.35 µM (inactive)
GI50 (SK-MEL-28): 26.1 µM (inactive)
GI50 (UACC-62): 13.7 µM (inactive)
GI50 (SK-OV-3): 36.6 µM (inactive)
GI50 (OVCAR-4): 14.7 µM (inactive)
GI50 (SF-539): 12.1 µM (inactive)
GI50 (IGROV-1): 24.9 µM (inactive)
GI50 (NCI-H460): 23.3 µM (inactive)
GI50 (EKVX): 14.3 µM (inactive)
GI50 (SNB-19): 33.8 µM (inactive)
GI50 (COLO 205): 23.2 µM (inactive)
GI50 (MDA-MB-231): 36.1 µM (inactive)
GI50 (K562): 32.1 µM (inactive)
GI50 (UO-31): 14.6 µM (inactive)
GI50 (OVCAR-8): 31 µM (inactive)
GI50 (MCF7): 20.9 µM (inactive)
GI50 (HL-60): 14.8 µM (inactive)
GI50 (OVCAR-3): 26 µM (inactive)
GI50 (HCT-15): 24.9 µM
GI50 (HCT-116): 27 µM (inactive)

NC(=O)CC(Nc1ncc2c(n1)-c1ccccc1OC2)C(=O)O (stereo not given)
GI50 (SK-MEL-5): > 100 µM (inactive)
GI50 (SK-MEL-28): > 100 µM (inactive)
GI50 (UACC-62): > 100 µM (inactive)
GI50 (SK-OV-3): > 100 µM (inactive)
GI50 (OVCAR-4): > 100 µM (inactive)
GI50 (SF-539): > 100 µM (inactive)
GI50 (IGROV-1): 24.2 µM (inactive)
GI50 (NCI-H460): > 100 µM (inactive)
GI50 (EKVX): 59.6 µM (inactive)
GI50 (SNB-19): > 100 µM (inactive)
GI50 (COLO 205): > 100 µM (inactive)
GI50 (MDA-MB-231): > 100 µM (inactive)
GI50 (K562): > 100 µM (inactive)
GI50 (UO-31): > 100 µM (inactive)
GI50 (OVCAR-8): > 100 µM (inactive)
GI50 (MCF7): 77.6 µM (inactive)
GI50 (HL-60): 14.9 µM (inactive)
GI50 (OVCAR-3): > 100 µM (inactive)
GI50 (HCT-15): 85.7 µM
GI50 (HCT-116): > 100 µM (inactive)

CCCc1cn2c(/C=N/N=C(N)N)c(-c3c(OC)ccc(OC)c3[N+](=O)[O-])nc2s1
GI50 (SK-MEL-5): 13.3 µM (inactive)
GI50 (SK-MEL-28): 4.84 µM (inactive)
GI50 (UACC-62): 8.24 µM (inactive)
GI50 (SK-OV-3): 18.1 µM (inactive)
GI50 (OVCAR-4): 20.2 µM (inactive)
GI50 (SF-539): 16.9 µM (inactive)
GI50 (IGROV-1): 9.89 µM (inactive)
GI50 (NCI-H460): 12.3 µM (inactive)
GI50 (EKVX): 18 µM (inactive)
GI50 (SNB-19): 18.4 µM (inactive)
GI50 (COLO 205): 2.16 µM (inactive)
GI50 (MDA-MB-231): 4.07 µM (inactive)
GI50 (K562): 3.44 µM (inactive)
GI50 (UO-31): 20.4 µM (inactive)
GI50 (OVCAR-8): 14.6 µM (inactive)
GI50 (MCF7): 2.81 µM (inactive)
GI50 (HL-60): 7.46 µM (inactive)
GI50 (OVCAR-3): 4.69 µM (inactive)
GI50 (HCT-15): 18.2 µM
GI50 (HCT-116): 6.18 µM (inactive)

Clc1cc(Cl)nc(Nc2ccc3c(c2)CCC3)n1
GI50 (SK-MEL-5): 23.8 µM (inactive)
GI50 (SK-MEL-28): 37.7 µM (inactive)
GI50 (UACC-62): 46.1 µM (inactive)
GI50 (SK-OV-3): > 100 µM (inactive)
GI50 (OVCAR-4): 61.2 µM (inactive)
GI50 (SF-539): > 100 µM (inactive)
GI50 (IGROV-1): 16 µM (inactive)
GI50 (NCI-H460): 30.4 µM (inactive)
GI50 (EKVX): 20 µM (inactive)
GI50 (SNB-19): 89.5 µM (inactive)
GI50 (COLO 205): 24 µM (inactive)
GI50 (MDA-MB-231): 51.3 µM (inactive)
GI50 (K562): 20.6 µM (inactive)
GI50 (UO-31): 41.4 µM (inactive)
GI50 (OVCAR-8): 72.3 µM (inactive)
GI50 (MCF7): 20.5 µM (inactive)
GI50 (HL-60): 36.7 µM (inactive)
GI50 (OVCAR-3): 32 µM (inactive)
GI50 (HCT-15): 33.7 µM
GI50 (HCT-116): 28.6 µM (inactive)

CC[C@H](C)[C@H]1NC(=O)[C@@H](NC(=O)[C@@H](CC(C)C)N(C)C(=O)[C@@H]2CCCN2C(=O)C(C)=O)[C@@H](C)OC(=O)[C@H](Cc2ccc(OC)cc2)N(C)C(=O)[C@@H]2CCCN2C(=O)[C@H](CC(C)C)NC(=O)[C@H](C(C)C)OC(=O)C[C@@H]1O (Pyruvoyl-P[dNMeL]T[X40][Hiv]LP[NMeY](Me); ester 3-C)
GI50 (SK-MEL-5): 0.00393 µM (active)
GI50 (SK-MEL-28): 0.005 µM (active)
GI50 (UACC-62): 0.00374 µM (active)
GI50 (SK-OV-3): 0.00528 µM (active)
GI50 (OVCAR-4): 0.00562 µM (active)
GI50 (SF-539): 0.00361 µM (active)
GI50 (IGROV-1): 0.00471 µM (active)
GI50 (NCI-H460): 0.00429 µM (active)
GI50 (EKVX): 0.0031 µM (active)
GI50 (SNB-19): 0.00224 µM (active)
GI50 (COLO 205): 0.00368 µM (active)
GI50 (MDA-MB-231): 0.0138 µM (active)
GI50 (K562): 0.00353 µM (active)
GI50 (UO-31): 0.01 µM (active)
GI50 (OVCAR-8): 0.006 µM (active)
GI50 (MCF7): 0.00232 µM (active)
GI50 (HL-60): 0.05 µM (active)
GI50 (OVCAR-3): 0.00577 µM (active)
GI50 (HCT-15): 0.0252 µM
GI50 (HCT-116): 0.00222 µM (active)
